IC50 data for one molecule are collected here from patent publication US7888464B2, “Hepatitis C virus inhibitors” (Bristol-Myers Squibb Company, priority 2006, dated 2011).

The target in the test is T1, HCV NS3/4A protease complex, BMS strain (genotype 1a) (UniProt P27958, species not given/STRAIN_BMS).
T1 construct: "DNA encoding the recombinant HCV NS3/4A protease complex (amino acids 1027 to 1711) for these strains" (said of H77 and J4L6S, not expressly of BMS); given for the H77/J4L6S constructs only
T1 sequence (P27958 1027-1657, stated change not applied, one chain of several): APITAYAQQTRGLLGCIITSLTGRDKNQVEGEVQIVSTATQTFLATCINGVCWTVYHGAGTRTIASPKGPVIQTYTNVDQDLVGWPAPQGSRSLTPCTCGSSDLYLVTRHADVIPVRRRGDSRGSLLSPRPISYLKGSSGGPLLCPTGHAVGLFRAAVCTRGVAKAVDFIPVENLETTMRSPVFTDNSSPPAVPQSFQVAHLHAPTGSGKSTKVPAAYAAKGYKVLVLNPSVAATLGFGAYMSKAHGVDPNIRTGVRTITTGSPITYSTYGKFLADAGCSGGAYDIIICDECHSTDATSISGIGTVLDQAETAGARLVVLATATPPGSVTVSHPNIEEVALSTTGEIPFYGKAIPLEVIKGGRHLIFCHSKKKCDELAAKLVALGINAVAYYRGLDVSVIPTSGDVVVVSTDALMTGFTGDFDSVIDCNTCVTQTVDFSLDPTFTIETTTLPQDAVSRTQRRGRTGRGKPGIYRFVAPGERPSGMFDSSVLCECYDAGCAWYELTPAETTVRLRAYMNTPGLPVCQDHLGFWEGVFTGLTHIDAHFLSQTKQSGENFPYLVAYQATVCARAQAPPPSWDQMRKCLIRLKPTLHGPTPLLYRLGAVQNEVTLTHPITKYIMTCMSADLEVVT
As to the kind of experiment: FRET peptide assay to monitor HCV NS3/4A proteolytic activity (BMS strain). The following applies: BMS strain; read-out: IC50 against the NS3/4A BMS strain in the enzyme assay. It counts as biochemical. The source says: HCV NS3 protease complexes, derived from the BMS strain, H77 strain or J4L6S strain, were generated, as described below. These purified recombinant proteins were generated for use in a homogeneous assay (see below) to provide an indication of how effective compounds of the present disclosure would be in inhibiting HCV NS3 proteolytic activity.
Serum from an HCV-infected patient was obtained from Dr. T. Wright, San Francisco Hospital. An engineered full-length cDNA (compliment deoxyribonucleic acid) template of the HCV genome (BMS strain) was constructed from DNA fragments obtained by reverse transcription-PCR(RT-PCR) of serum RNA (ribonucleic acid) and using primers selected on the basis of homology between other genotype la strains. From the determination of the entire genome sequence, a genotype la was assigned to the HCV isolate according to the classification of Simmonds et al. (See P Simmonds, K A Rose, S Graham, S W Chan, F McOmish, B C Dow, E A Follett, P L Yap and H Marsden, J. Clin. Microbiol., 31(6), 1493-1503 (1993)). […] The infectious clones, H77 (1a genotype) and J4L6S (1b genotype) were obtained from R. Purcell (NIH) and the sequences are published in Genbank (AAB67036, see Yanagi, M., Purcell, R. H., Emerson, S. U. and Bukh, J. Proc. Natl. Acad. Sci. U.S.A. 94(16), 8738-8743 (1997); AF054247, see Yanagi, M., St Claire, M., Shapiro, M., Emerson, S. U., Purcell, R. H. and Bukh, J, Virology 244 (1), 161-172. (1998)).
The H77 and J4L6S strains were used for production of recombinant NS3/4A protease complexes. DNA encoding the recombinant HCV NS3/4A protease complex (amino acids 1027 to 1711) for these strains were manipulated as described by P. Gallinari et al. (see Gallinari P, Paolini C, Brennan D, Nardi C, Steinkuhler C, De Francesco R. Biochemistry. 38(17):5620-32, (1999)). Briefly, a three-lysine solubilizing tail was added at the 3′-end of the NS4A coding region. The cysteine in the P1 position of the NS4A-NS4B cleavage site (amino acid 1711) was changed to a glycine to avoid the proteolytic cleavage of the lysine tag. Furthermore, a cysteine to serine mutation was introduced by PCR at amino acid position 1454 to prevent the autolytic cleavage in the NS3 helicase domain. The variant DNA fragment was cloned in the pET21b bacterial expression vector (Novagen) and the NS3/4A complex was expressed in Escherichia. coli strain BL21 (DE3) (Invitrogen) following the protocol described by P. Gallinari et al. (see Gallinari P, Brennan D, Nardi C, Brunetti M, Tomei L, Steinkuhler C, De Francesco R., J. Virol. 72(8):6758-69 (1998)) with modifications. Briefly, the NS3/4A protease complex expression was induced with 0.5 millimolar (mM) Isopropyl β-D-1-thiogalactopyranoside (IPTG) for 22 hours (h) at 20° C. A typical fermentation (1 Liter (L)) yielded approximately 10 grams (g) of wet cell paste. The cells were resuspended in lysis buffer (10 mL/g) consisting of 25 mM N-(2-Hydroxyethyl)piperazine-N′-(2-Ethane Sulfonic acid) (HEPES), pH 7.5, 20% glycerol, 500 mM Sodium Chloride (NaCl), 0.5% Triton X-100, 1 microgram/milliliter (“μg/mL”) lysozyme, 5 mM Magnesium Chloride (MgCl2), 1 μg/ml DnaseI, 5 mM β-Mercaptoethanol (βME), Protease inhibitor-Ethylenediamine Tetraacetic acid (EDTA) free (Roche), homogenized and incubated for 20 minutes (min) at 4° C. The homogenate was sonicated and clarified by ultra-centrifugation at 235000 g for 1 hour (h) at 4° C. Imidazole was added to the supernatant to a final concentration of 15 mM and the pH adjusted to 8.0. The crude protein extract was loaded on a Nickel-Nitrilotriacetic acid (Ni-NTA) column pre-equilibrated with buffer B (25 mM HEPES, pH 8.0, 20% glycerol, 500 mM NaCl, 0.5% Triton X-100, 15 mM imidazole, 5 mM βME). The sample was loaded at a flow rate of 1 mL/min. The column was washed with 15 column volumes of buffer C (same as buffer B except with 0.2% Triton X-100). The protein was eluted with 5 column volumes of buffer D (same as buffer C except with 200 mM Imidazole). […]

The structures appear in SMILES notation.

With `C=C[C@@H]1C[C@]1(NC(=O)[C@@H]1C[C@@](O)(c2ccc(-c3ccccc3)cc2)CN1C(=O)[C@@H](NC(=O)OC(C)(C)C)C(C)(C)C)C(=O)NS(=O)(=O)C1CC1` [Compound 3], the IC50 was found to be 4.4 nM.
